The source of these data is patent publication US5610171A, “Inhibition of metastasis in patients having cancer with pyridyloxazole-2-ones” (Merrell Pharmaceuticals Inc., priority 1995, dated 1997).

Like-named read-outs stand apart in the source and are kept apart here.

Test [1] concerns B16F1 cells. Kind of test: Experimental lung metastasis assay (B16F1 cells treated in culture, then injected intravenously into C57BL/6 mice). It counts as in vivo, murine (C57BL/6 mice). The conditions noted are these: Mus musculus, B16-F1, iv, read-out: B16 Metastasis IC50. How it is done: Experimental Metastasis Assay
Sub-confluent B16F1 cells were harvested by washing with HBSS followed by trypsinization for 1 minute. The cells were sedimented by centrifugation (250 g, 5 minutes) and washed twice with HBSS. Viable cells were counted after dilution with trypan blue. A single-cell suspension of 10^5 cells in 0.2 ml HBSS was injected intravenously into 16-18 C57BL/6 mice via the tail vein. Three weeks later, the number of metastatic foci in the lung were counted.

The test system of test [2] is cytosolic PKC. Kind of test: Inhibition of B16F1 cytosolic PKC activity. It counts as biochemical, murine. The conditions noted are these: B16F1 cytosol fraction. How it is done: (§1) Protein Kinase C Preparation
(§2) Cytostolic and membrane-associated PKC was prepared as described in Thomas, T. P., Gopalakrishna, R. and Anderson, W. B. Hormone- and tumor promoter-induced activation of membrane association of protein kinase C in intact cells, Methodsin Enzymology, 141: 399-411, 1987. Sub-confluent B16F1 cultures (4×10^7 cells total) were washed twice with phosphate buffered saline (PBS), pH 7.2 and then twice with buffer A (20 mM Tris, pH 7.5, 2 mM EDTA, 0.5 mM EGTA, […], 2 mM phenylmethylsulfonyl fluoride (PMSF), and 2 μg/ml leupeptin). Cells were scraped from the plates in buffer A, homogenized (40 strokes) and sedimented by centrifugation for 1 hour at 100,000 g. The cytosol was stored on ice while the particulate fraction was washed with buffer B (20 mM Tris, pH 7.2, 2 mM EDTA, 0.5 mM EGTA, and 2 mM (PMSF). The membranes were resuspended with buffer B and homogenized with 10 strokes. Nonidet P-40 (1% final concentration) was added and the mixture was incubated for 30 minutes at 4° C. in a rotating mixer. Nonsolubilized material was removed by centrifugation for 10 minutes at 1400 g. Cytostolic and membrane-bound PKC was partially purified by chromatography over 1 ml columns of DE-52 (Whatman) equilibrated with buffer B. The enzyme was applied to the column and washed with 2×3 ml buffer B. Elution of PKC was then effected by the addition of 2 ml buffer B containing 100 mM NaCl.
(§3) PKC was quantitated as described in Thomas et al., ibid. The assay contained 20 mM Tris (pH 7.5), 0.75 mM CaCl, 10 mM magnesium acetate, […] histone III-S, 0.25 μg/ml leupeptin, 100 μM [gamma-^32 p]-ATP (120 cpm/pmol), 0.96 μg/ml phosphatidylserine, and 0.0064 μg/ml 1,2-diolein in a total assay volume of 250 μl. Blanks contained no calcium or phospholipids. Incubation was for 5 minutes at 30° C. at which point the reaction was terminated by the addition of 1 ml 25% trichloroacetic acid (TCA). Samples were applied to Whatman GF/B filters, the tube rinsed twice with 5% TCA and the filter then washed 5 times with 5% TCA.
^a Subconfluent B16F1 cells were harvested and cytosol and membrane
fractions prepared as described in Materials and Methods. PKC activity wa
then measured in the presence of the drugs listed.

Test [3] relates to membrane-associated PKC. In words: Inhibition of B16F1 membrane-associated PKC activity. It is filed as biochemical, murine. As to conditions: B16F1 membrane fraction. How it is done:
as §1, §2, §3

Test [4] concerns fibrinogen. In words: Adhesion of B16F1 cells to fibrinogen. It counts as cell-based. The conditions noted are these: 24 hours. How it is done:
(§4) Adhesion of B16F1 Cells to Basement Membrane Proteins
(§5) Adhesion proteins (2 μg/well) were coated onto Immulon I Removawells from Dynatech and incubated for 1 hour at 37° C. The wells were then blocked for 1 hour with 400 μl PBS, pH 7.2 containing 1% bovine serum albumin (BSA) at 37° C. Prior to addition of the cell suspension, the blocking solution was aspirated.
(§6) Sub-confluent cells were washed twice with HBSS and removed form flasks by incubation for 10 minutes at 37° C. with PBS (pH 7.2), 2 mM EDTA, and 1% BSA. The cells were washed twice with MEM containing 20 mM HEPES and 0.1% BSA and resuspended in the same medium to give a cell density of […].
(§7) Cells were added to wells in 50 μl (5×10^4 cells) and incubated at 37° C. The wells were aspirated and washed three times with 400 μl PBS (pH 7.2) containing 0.1% BSA. Wells were detached and counted in 5 ml Beckman Ready Protein. Blanks were not coated with protein but were blocked with BSA as described above.

For test [5], the system named is collagen IV. In words: Adhesion of B16F1 cells to collagen IV. It is filed as cell-based. The conditions noted are these: 24 hours. How it is done: as §4, §5, §6, §7
Test [6] has as its system B16F1 cells / human umbilical vein endothelial cells (HUVEC). In words: Adhesion of B16F1 melanoma cells to endothelial cells (HUVEC). It is filed as cell-based, murine B16F1 cells; human HUVEC. How it is done: Adhesion of Tumor Cells to Endothelial Cells
Round 15 mm Thermanox tissue culture cover slips from Lux were placed in Corning 12-well, 22 mm diameter tissue culture clusters. HUVEC (2×10^6) were added to each well and grown to confluency. Sub-confluent B16F1 cells were labeled with 1 μCi/ml [^3 H]-thymidine (New England Nuclear, 78.5 Ci/mmol) for 24 hours at 37° C.
In preparation for the adhesion assay, the tissue culture wells containing either HUVEC or no cells were blocked with MEM containing 20 mM HEPES and 1% BSA for 1 hour at 37° C. B16F1 cells were removed from the flasks as described above for adhesion to basement membrane proteins and diluted to a density of 2×10^5 viable cells/ml in MEM (viability determined by trypan blue exclusion).
Blocking solution was aspirated from the wells and 1 ml of cells were added per well and incubated at 37° C. Nonadherent cells were washed from coverslips as described in Wright, P. S., Cross-Doersen, D., McCann, P. P. and Bitonti, A. J., Plasmodium falciparum: a rapid assay for cytoadherence of [^3 H]-hypoxanthine-labeled infected erythrocytes to human melanoma cells, Exp. Parasitol., 71: 346-349, 1990. Coverslips were retrieved from the well with forceps and dipped 10 times into a beaker of 100 ml MEM. Coverslips were placed into scintillation vials and counted in 10 ml Beckman Ready Protein.
B16F1 cells were treated with 4-propyl-5(4-pyridinyl)-
(3H)-oxazolone for 24 hours at 37° C. Cells were then
harvested and added to wells containing confluent HUVEC
cells and incubated for the time indicated at 37° C. Details
are given in Materials and Methods.

The subject of test [7] is SP1 mouse mammary adenocarcinoma cells. The conditions noted are these: cells normally do not metastasize; cited from earlier work.
Test [8] deals with Lewis lung carcinoma cells. As to conditions: cited from earlier work.
For test [9], the system named is B16 murine melanoma cells. As to conditions: cells treated in vitro, intravenous injection into mice; cited from earlier work.
Where [10] appears, read: cells exposed to drugs for 24 hours, nodules counted three weeks later.

Broadly, the IC50 is the concentration needed to halve the response being measured.

With `CC1CNCCN1S(=O)(=O)c1cccc2cnccc12` (stereo not shown) [Compound H-7, reference compound], the IC50 in test [1] was 12.5 µM; in test [2], 180 µM; in test [3] it was 71 µM. In [4], the adhesion to fibrinogen entry is recorded as “Neither H-7 nor staurosporine inhibited adherence”. In test [5], the “adhesion to collagen IV” value is “Neither H-7 nor staurosporine inhibited adherence”. For the same compound, in [6], the “adherence to HUVEC” value is reported as “Neither H-7 nor staurosporine inhibited adherence”.
In the case of `CCCc1[nH]c(=O)oc1-c1ccnc2ccccc12` [Compound 4, 4propyl-5-(4-quinolinyl)-2(3H)-oxazolone], the 50% inhibitory concentration (IC50) was found to be 62 µM in test [2] and 94 µM in test [3].
`CN[C@@H]1C[C@H]2O[C@@](C)([C@@H]1OC)n1c3ccccc3c3c4c(c5c6ccccc6n2c5c31)C(=O)NC4` [Staurosporine, reference compound]: it took 0.019 µM to reach half-maximal inhibition in [2] (IC50). In test [4], the adhesion to fibrinogen result is “Neither H-7 nor staurosporine inhibited adherence”. For the same compound, the “adhesion to collagen IV” value in test [5] was “Neither H-7 nor staurosporine inhibited adherence”. The “adherence to HUVEC” value in [6] is “Neither H-7 nor staurosporine inhibited adherence”.
As for `Cc1[nH]c(=O)oc1-c1ccncc1` [Compound 2, 4methyl-5-(4-pyridinyl)-2(3H)-oxazolone], the IC50 amounted to 36 µM in test [1] (setting [10]), 500 µM in [2] and 250 µM in test [3].
Regarding `CNc1ccc2oc(C[C@H]3O[C@@]4(CC[C@H]3C)O[C@H]([C@H](C)C(=O)c3ccc[nH]3)[C@H](C)C[C@H]4C)nc2c1C(=O)O` [Compound A23187], the “metastasis from the primary tumor” value in test [7] is “resulted in metastasis from the primary tumor”.
Take `CCCCCCCCCCCCCC(=O)O[C@@H]1[C@@H](C)[C@@]2(O)[C@@H](C=C(CO)C[C@]3(O)C(=O)C(C)=C[C@@H]23)[C@@H]2C(C)(C)[C@]12OC(C)=O` [PMA, phorbol-12-myristate-13-acetate]: the “adhesion to endothelial cells” value in [8] is given as “enhancement of adhesion to endothelial cells”. Besides, the “metastasis from the primary tumor” value in test [7] is listed as “resulted in metastasis from the primary tumor”. Further, the “number of metastatic foci in lungs” value in test [9] is “increased numbers of metastatic foci in lungs”.
Take `CCc1[nH]c(=O)oc1-c1ccnc2ccccc12` [Compound 3, 4ethyl-5-(4-quinolinyl)-2(3H)-oxazolone]: the IC50 in test [1] (setting [10]) was found to be 68 µM; in test [2], 47 µM; in test [3], 15 µM.
